Source: patent US20030175735A1, “Recombinant adenylcyclase and use thereof for screening molecules with proteolytic activity” (priority 2000, published 2003)

Experiments:
wild-type HIV protease [1] = target: wild-type HIV protease (Human immunodeficiency virus type 1 group M subtype B, UniProt P04585); type: cell-based
Experimental: (§1) The bacteria are cultured in Luria-Bertani (LB) liquid or agar (15 g/l agar) medium. Their ability to ferment sugars is tested on McConkey agar medium containing 1% of maltose (Miller, 1972, Experiments in Molecular Genetics, Cold Spring Harbor Lab. Press, Cold Spring Harbor, N.Y.). The antibiotics are used at the following concentrations: ampicillin: 100 μg/ml and kanamycin: 50 μg/ml. The protease inhibitors, indinavir (Crixivan, Merck) and saquinavir (Invirase, Roche) are dissolved, respectively, in ethanol and in water (final concentration 20 mM) and then diluted in the culture media at the concentrations indicated.
In order to test this system, a recombinant protein according to the invention, ACp5, into which is inserted, between amino acids 224 and 225 of the adenyl cyclase, the p5 cleavage site of the HIV protease, was generated. The plasmid expressing this protein (pKACp5, example 2) was cotransformed into an E. coli cya strain, with a compatible plasmid carrying or not carrying the wild-type HIV protease (pUCVIH or pUC19).

HIV protease mutant V2 [2] = type: cell-based
Experimental: as §1
The DNA encoding the modified proteases was cloned into the vector of pUC19 (example 2) and the plasmids obtained were cotransformed with pKACp5 into the DHT1 strain. The phenotype of the transformed bacteria is observed on McConkey maltose medium containing or not containing protease inhibitors.

wild-type HIV protease [3] = type: cell-based; settings: for phenotype in the presence of inhibitor: Cya− in the absence of inhibitor
Experimental: as §1
A chimeric protein (ACPr) was therefore constructed (example 2), into which is inserted, between amino acids 224 and 225 of the adenyl cyclase, the HIV protease (99 residues) and its two cleavage sequences p5 and p6 (each one 8 amino acids) .

HIV protease mutant B3 [4] = assay: system in cis: phenotype of DHT1 with pKACB3; type: cell-based
Experimental: as §1
(§2) For this study, the B1, B3, V1 and V2 proteases are inserted between amino acids 224 and 225 of the adenyl cyclase and the chimeric proteins obtained are expressed in the DHT1 strain (plasmids pKACB1, pKACB3, pKACV1 and pKACV2).

HIV protease mutant V2 [5] = assay: system in cis: phenotype of DHT1 with pKACV2; type: cell-based
Experimental: as §1, §2

HIV protease mutant B1 = settings: modified protease B1
From the text: (§3) The mutations are described relative to the amino acid sequence (1-99) of the reference virus protease (V: Val; I: Ile; M: Met; T: Thr; L: Leu and P: Pro). The level of resistance of the mutants corresponds to the relative increase (compared to the wild-type protease) in the concentration of inhibitors required to inhibit 50% of the viral replication.

HIV protease mutant B3 [6] = settings: modified protease B3 (M46I, V77I, V82T)
From the text: as §3

HIV protease mutant V1 = settings: modified protease V1 (L63P)
From the text: as §3

HIV protease mutant V2 [7] = settings: modified protease V2 (L10I, L63P, L90M)
From the text: as §3

| SMILES | concentration needed for the bacteria to become Cya+ (wild-type HIV protease [1]) | concentration needed for the bacteria to become Cya+ (HIV protease mutant V2 [2]) | phenotype on medium containing 20 μM of saquinavir (wild-type HIV protease [3]; pKACPr, system in cis) | phenotype at 10 μM (wild-type HIV protease [3]; pKACPr, system in cis, 10 μM saquinavir) | phenotype in the presence of inhibitor (wild-type HIV protease [3]; pKACPr, system in cis) | phenotype at 10 μM (HIV protease mutant B3 [4]; 10 μM saquinavir) | phenotype on medium containing 20 μM of saquinavir (HIV protease mutant V2 [5]) | Resistance to inhibitor: relative increase (compared to the wild-type protease) in the concentration required to inhibit 50% of the viral replication (HIV protease mutant B1) | Resistance to inhibitor: relative increase (compared to the wild-type protease) in the concentration required to inhibit 50% of the viral replication (HIV protease mutant B3 [6]) | Resistance to inhibitor: relative increase (compared to the wild-type protease) in the concentration required to inhibit 50% of the viral replication (HIV protease mutant V1) | Resistance to inhibitor: relative increase (compared to the wild-type protease) in the concentration required to inhibit 50% of the viral replication (HIV protease mutant V2 [7]) | concentration up to which the bacteria have a Cya− phenotype (wild-type HIV protease [3]) | phenotype on medium containing 100 μM indinavir (wild-type HIV protease [3]; pKACPr, system in cis) | concentration up to which the bacteria have a Cya− phenotype (HIV protease mutant B3 [4]) | phenotype on medium containing 100 μM indinavir (HIV protease mutant V2 [5]) |
| --- | --- | --- | --- | --- | --- | --- | --- | --- | --- | --- | --- | --- | --- | --- | --- |
| CC(C)(C)NC(=O)[C@@H]1C[C@@H]2CCCC[C@@H]2CN1C[C@@H](O)[C@H](Cc1ccccc1)NC(=O)[C@H](CC(N)=O)NC(=O)c1ccc2ccccc2n1 [saquinavir] | 10 µM | 20 µM | red colonies | red | Cya^+ | Cya^− | Cya^− | 1 X | 3 X | 1 X | 53 X | – | – | – | – |
| CC(C)(C)NC(=O)[C@@H]1CN(Cc2cccnc2)CCN1C[C@@H](O)C[C@@H](Cc1ccccc1)C(=O)N[C@H]1c2ccccc2C[C@H]1O [indinavir] | 50 µM | 50 µM | – | – | Cya^+ | – | – | 1 X | 13 X | 1 X | 4 X | 50 µM | red colonies | 100 µM | Cya^− |
